Experimental data reported in patent US6425888B1, “Ocular treatment device” (R. P. Scherer Corporation, priority 1994, dated 2002).
Where a name gives a salt, the structure may show the parent alone.

Tested on: rabbits
Assay: Miotic response (pupil diameter) of rabbits after a single spray from the blister crushing device of FIG. 18
Assay type: in vivo, rabbit
Details: left eye, mean of 5 rabbits
Description: The device of FIG. 18 was used in a study of the ocular response of rabbits to treatment according to the invention. The rabbits selected for the study were allowed to acclimatise for 4-5 days prior to treatment. They were subjected to manual restraining for 2 days prior to the study to condition them to the procedures involved in dosing. A device of the kind illustrated in FIG. 18 was then used to administer a single spray of isotonic 2% Pilocarpine hydrochloride (Pilocarpine HCl) solution to the corneal surface of the left eve of each of 5 rabbits, the right eyes remaining undosed. The following settings were used: 100 μm nozzle diameter 2.5 cm distance between nozzle tip and animal eye Sprays targeted towards the centre of the cornea of the animal eye The miotic response (reduction in pupil diameter) at various intervals following the application of the pilocarpine HCl solution was monitored under constant illumination using video photography. The pupil diameter of the left eye was expressed in proportion to the diameter of a fixed reference aperture situated at an equal distance from the video camera. The actual diameter was then calculated from the known diameter of the reference aperture.

Structure (SMILES): CC[C@@H]1C(=O)OC[C@@H]1Cc1cncn1C [Pilocarpine HCl, Pilocarpine hydrochloride]
- Pupil Diameter (+15 min after dose): 6.7 mm
- Pupil Diameter (+30 min after dose): 6.8 mm
- Pupil Diameter (+45 min after dose): 6.9 mm
- Pupil Diameter (+1 hr after dose): 6.8 mm
- Pupil Diameter (+1.5 hr after dose): 6.9 mm
- Pupil Diameter (+2 hr after dose): 7.3 mm
- Pupil Diameter (+2.5 hr after dose): 7.8 mm
- Pupil Diameter (+3 hr after dose): 7.9 mm
- Pupil Diameter (+3.5 hr after dose): 8.0 mm
- Pupil Diameter (+4 hr after dose): 7.8 mm
- Pupil Diameter (Dose (0 min), single spray of isotonic 2% solution to cornea): 7.8 mm
